Measurements from patent publication US11529338B2, “Compositions and methods for treating cancer” (Cedars-Sinai Medical Center, priority 2017, dated 2022).

Target: T1, OC2-HOX (Homo sapiens, UniProt O95948)
T1 sequence (O95948 426-485 limits assumed): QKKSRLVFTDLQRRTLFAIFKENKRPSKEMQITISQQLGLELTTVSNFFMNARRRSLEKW
Experiment: Binding to OC2-HOX measured by surface plasmon resonance
Details: based on 2:2 Langmuir model simulation of the bimolecular interactions, read-out: binding affinity KD
Source text: FIG. 12A-FIG. 12C depicts in accordance with various embodiments of the invention, CSRM617 derivatives. FIG. 12A depicts chemical structures of CSRM617 derivatives CSRM123 and CSRM843. FIG. 12B depicts dose-dependent binding of CSRM123 and CSRM843 to OC2-HOX, measured by surface plasmon resonance, is shown. […] FIG. 12C depicts IC50 values for compounds CSRM617, CSRM123 and CSRM843 in 22Rv1 and DU145 cell lines.

Kd [nM] | Structure (SMILES)
118 | O=C(CNC(=O)Cc1ccc(O)c(O)c1O)NO [CSRM843]
1150 | NC(=O)C1CCCCN1C(=O)NCCc1ccc(O)c(O)c1O (centres unmarked) [CSRM123]
